Assay results taken from US7166567B2, “Fragrance compositions” (Givaudan SA, priority 2000, dated 2007).
Where two headings read alike, the source gives them in different places.

Columns and labels:
Type in all cases: physicochemical
[1] = Retention of fragrance material components after granulation by GC/MS; conditions: for Divided. Initial Retention: fragrance divided between core particles and outer matrix (Example 2.2); for Undivided. Initial Retention: whole fragrance in outer matrix (Example 2.1)
From the text: In this example, fragrance material components are divided between core particles and outer matrix. The selection is made such that fragrance components having a loss factor of FL>10^2 Pa ppm are present in core particles whereas the components having a loss factor of FL<10^2 Pa ppm are present in the outer matrix. Such a composition is then compared with a composition wherein total fragrance material is provided in an outer matrix, the core particles being fragrance material-free. […] The retention of certain fragrance material components after the granulation process was measured by GC/MS analysis.

[2] = Loss Factor (vapour pressure x water solubility at room temperature)
From the text: Preferred components of a fragrance material for addition to the outer matrix are substances that have a Loss Factor (FL) that is lower than 10^2 Pa ppm. The term <<Loss Factor>> refers to a parameter that is related to the losses of fragrance material during drying and is defined as the product of the pure component vapour pressure (Pa) and the water solubility (ppm) at room temperature. Vapour pressures and water solubility data for commercially available fragrance components are well known and so the Loss Factor for a given fragrance component may be easily calculated. Alternatively, vapour pressure and water solubility measurements may be easily taken using techniques well known in the art. […] The water solubility of fragrances may be measured according to techniques known in the art for the measurement of sparingly water-soluble materials. A preferred technique involves the formation of a saturated solution of a fragrance component in water. A tube with a dialysed membrane is placed in the solution such that after equilibration an idealised solution is formed within the tube. The tube may be removed and the water solution therein extracted with a suitable organic solvent to remove the fragrance component. Finally the extracted fragrance component may be concentrated and measured, for example using gas chromatography.

[3] = Aged retention of fragrance components in powder detergent, GC/MS; conditions: 1 month, 37° C., 70% relative humidity; for Retention With coating: composition as Example 1 with coating in detergent base; for Retention Without coating: composition as Example 1 without coating in detergent base; for Retention free perfume: free perfume in detergent base, 0.35 wt %
Method: Compositions were prepared substantially as set out in Example 1 wherein one composition was provided with a coating and the other not.
Compositions were incorporated into standard, unperfumed detergent bases resulting in 130.00 g perfumed powder detergent with a perfume level of 0.35 wt % based on total powder detergent. As a reference, 0.46 g of free perfume was incorporated into 129.54 g of the same standard detergent base. Both samples and reference were filled separately into carton boxes, sealed and stored in a climate chamber at 70% relative humidity and 37° C. for 1 month. All samples were compared in terms of aged fragrance material profile measured by GC/MS analysis.

[4] = vapour pressure (Pa) x water solubility (ppm), room temperature

SMILES: CCC(C)(O)CCCC(C)C (centres unmarked) [Tetrahydro linalool]
- Divided. Initial Retention [1]: 97%
- Undivided. Initial Retention [1]: 47%
- Loss Factor FL [2, 4]: 3466 Pa ppm
- Retention With coating [3]: 84%
- Retention Without coating [3]: 50%
- Retention free perfume [3]: 33%

SMILES: O=C(OCc1ccccc1)c1ccccc1 [Benzyl benzoate]
- Divided. Initial Retention [1]: 88%
- Undivided. Initial Retention [1]: 99%

SMILES: O=C(OC1CCCCC1)c1ccccc1O [Cyclohexyl salicylate]
- Divided. Initial Retention [1]: 94%
- Undivided. Initial Retention [1]: 91%
- Loss Factor FL [2, 4]: 1.37 Pa ppm

SMILES: CC(=O)OCc1ccccc1 [Benzyl acetate]
- Retention With coating [3]: 50%
- Retention Without coating [3]: 26%
- Retention free perfume [3]: 0%

SMILES: CC(C)=CCCC(C)CCO (centres unmarked) [Citronellol]
- Divided. Initial Retention [1]: 100%
- Undivided. Initial Retention [1]: 53%
- Loss Factor FL [2, 4]: 761 Pa ppm
- Retention With coating [3]: 71%
- Retention Without coating [3]: 18%
- Retention free perfume [3]: 26%

SMILES: CC(=O)CCC1=C(C)CCCC1(C)C [Dihydro beta ionone]
- Divided. Initial Retention [1]: 84%
- Undivided. Initial Retention [1]: 56%
- Loss Factor FL [2]: 84 Pa ppm

SMILES: CC(C=O)Cc1ccc(C(C)(C)C)cc1 (centres unmarked) [Lilial]
- Retention With coating [3]: 65%
- Retention Without coating [3]: 36%
- Retention free perfume [3]: 4%

SMILES: C=C(C)[C@H]1CC=C(C)CC1 [Limonene]
- Retention With coating [3]: 41%
- Retention Without coating [3]: 18%
- Retention free perfume [3]: 0%

SMILES: CC(=O)/C(C)=C/C1C(C)=CCCC1(C)C (centres unmarked) [Gamma methyl ionone]
- Retention With coating [3]: 91%
- Retention Without coating [3]: 51%
- Retention free perfume [3]: 49%

SMILES: OCCc1ccccc1 [Phenyl ethyl alcohol]
- Retention With coating [3]: 72%
- Retention Without coating [3]: 36%
- Retention free perfume [3]: 25%

SMILES: C=CC(C)(CCC=C(C)C)OC(C)=O (centres unmarked) [Linalyl acetate]
- Retention With coating [3]: 80%
- Retention Without coating [3]: 39%
- Retention free perfume [3]: 8%

SMILES: CC(=O)/C=C/C1=C(C)CCCC1(C)C [Beta ionone]
- Divided. Initial Retention [1]: 100%
- Undivided. Initial Retention [1]: 75%
- Loss Factor FL [2, 4]: 90 Pa ppm

SMILES: CCCCCCCCCC=O [Aldehyde C10]
- Divided. Initial Retention [1]: 93%
- Undivided. Initial Retention [1]: 44%
- Loss Factor FL [2]: 424 Pa ppm

SMILES: CCCCCCOC(=O)c1ccccc1O [Hexyl salicylate]
- Retention With coating [3]: 94%
- Retention Without coating [3]: 47%
- Retention free perfume [3]: 18%
